Like-named read-outs stand apart in the source and are kept apart here.
Columns and labels:
HIV-1 [1] = assay: HIV-1 replication inhibition in MT4 cells; type: cell-based; conditions: three independent experiments, average ± standard deviation, read-out: HIV-1 EC50
Method: (§1) HIV-1 replication was carried out in MT4 cells as previously reported ([Corona et al., 2016a]) using a molecular clone derived from the pNL4-3 ([Thierry et al., 2015]). A total of 120 ng of p24^gag antigen per 10^6 cells, corresponding to a multiplicity of infection (m.o.i.) of 0.3, was used for infection. […] Flow cytometry analysis was performed on a FACSCalibur flow cytometer (BD Biosciences, San Jose, CA, USA), and the results were analyzed using the […] software.

[2] = Viability of infected MT4 cells (cytotoxicity); type: cell-based; conditions: human, MT4 cells infected with HIV-1; infected MT4 cells viability; three independent experiments, average ± standard deviation
Method: as §1

MT4 cells = assay: Viability of infected MT4 cells (cytotoxicity); type: cell-based; conditions: no toxicity up to the highest concentration tested
Method: as §1

[3] = molecular target: T1, HIV-1 IN (LEDGF/p75-dependent) (Human immunodeficiency virus type 1 group M subtype B, UniProt P12497); assay: biochemical; type: biochemical; conditions: strand-transfer activity in the presence of LEDGF/p75; for IC50: read-out: IC50 IN LEDGF-dependent integration
T1 construct: Preparation of recombinant full-length IN and LEDGF proteins; made in house; host or cells: E. coli BL21(DE3)
Method: (§2) Proteins were expressed in E. coli BL21(DE3). Briefly, His-IN was purified by loading the precipitate of cell lysate onto a Ni-Sepharose column and eluting with a […] imidazole gradient (0–500 mM) in a HEPES buffer (50 mM, pH 7.5) containing NaCl (1 M), CHAPS (7.5 mM), and β-mercaptoethanol (2 mM). FLAG-IN was purified by loading the precipitate of cell lysate onto a phenyl-sepharose and ammonium sulfate gradient (0–800 mM) in a HEPES (pH 7.5, 50 mM) buffer containing NaCl (200 mM), CHAPS (7.5 mM), and β-mercaptoethanol (2 mM). Peak fractions were pooled, loaded onto a heparin column, and eluted with an increasing NaCl gradient (200 mM to 1 M) in a HEPES (pH 7.5, 50 mM) buffer containing CHAPS (7.5 mm) and β-mercaptoethanol (2 mM). Fractions containing integrase were pooled and stored in glycerol (10%) at −80°C.
(§3) Briefly, IN (50 nM) was preincubated with increasing concentrations of compounds for 1 h at room temperature in a reaction buffer containing HEPES (20 mM, pH 7.5), DTT (1 mM), glycerol (1%), MgCl2 (20 mM), Brij-35 (0.05%), and bovine serum albumin (BSA) (0.1 mg/ml).

[4] = molecular target: T2, HIV-1 IN (LEDGF-independent) (Human immunodeficiency virus type 1 group M subtype B, UniProt P12497); assay: biochemical; conditions: strand-transfer activity with omission of LEDGF/p75; read-out: IC50 IN LEDGF-independent integration
T2 construct: Preparation of recombinant full-length IN and LEDGF proteins; made in house; host or cells: E. coli BL21(DE3)
Method: as §2, §3

[5] = molecular target: T3, HIV-1 IN-IN subunit exchange (Human immunodeficiency virus type 1 group M subtype B, UniProt P12497); assay: HTRF-based IN subunit exchange assay; type: binding
T3 construct: Preparation of recombinant full-length IN and LEDGF proteins; made in house; host or cells: E. coli BL21(DE3)
Method: as §2
His and FLAG-tagged INs were mixed in Tris (pH 7.4, 25 mm) buffer containing NaCl (150 mm), MgCl2 (2 mM), Nonidet P-40 (0.1%), and BSA (1 mg/ml). Test compounds were then added to the mixture, and incubation was carried out for 2.5 h at room temperature.

HIV-1 IN-LEDGF binding = molecular target: T4, HIV-1 IN-LEDGF binding (Human immunodeficiency virus type 1 group M subtype B, UniProt P12497); assay: biochemical
T4 construct: Preparation of recombinant full-length IN and LEDGF proteins; made in house; host or cells: E. coli BL21(DE3)
Method: as §2
Briefly, His-IN was preincubated with different concentrations of a compound in a buffer containing NaCl (150 mm), MgCl2 (2 mM), Nonidet P-40 (0.1%), BSA (1 mg/ml), and Tris (pH 7.4, 25 mm) for 30 min at room temperature. Then, FLAG-LEDGF was added to the reaction mixture, and a mixture of anti-His6-XL665 and anti-FLAG-EuCryptate antibodies was added.

HIV-1 [6] = assay: Quantification of viral DNA genomes by qPCR in infected MT4 cells; type: cell-based; conditions: single HIV-1 replication cycle; for total viral DNA: increasing concentrations
Method: Quantitative PCR (qPCR) was performed as described previously ([Munir et al., 2013]). […] Cells were washed in phosphate-buffered saline (PBS), and dry cell pellets were frozen at −80°C until use. DNA from samples was purified with QIAamp DNA Blood mini kit (Qiagen, Valencia, CA, USA) according to the manufacturer’s instructions. Quantification of total viral DNAs, 2-LTR circular viral DNA (2-LTRc), and integrated DNAs was performed on a LightCycler instrument (Roche Diagnostics, Basel, Switzerland) using the second-derivative-maximum method provided by the LightCycler quantification software, version 3.5 (Roche Diagnostics). Amplification of the β-globin gene (two copies per diploid cell) was performed to normalize the results using the commercially available materials (Control kit DNA; Roche Diagnostics). The quantification of the results for 2-LTRc and total HIV-1 DNA was expressed as copy numbers per µg DNA. Integrated HIV-1 DNA was expressed as a percentage of wt control. Data were represented by mean and standard deviation of two independent experiments; p-values were calculated between the infected and infected-treated conditions by unpaired, two-tailed t-tests using GraphPad Prism Version 9.5.1 software (GraphPad Software, Inc., San Diego, CA, USA). Figures were drawn with GraphPad Prism Version 9.5.1.

[7] = tested on: HIV-1 RTs bearing K103N, Y181C, and Y188L (RNase H); assay: RNase H activity of HIV-1 RTs bearing K103N, Y181C and Y188L substitutions; type: biochemical; conditions: all cases
Method: K103N, Y181C, and Y188L mutations were introduced into the p6HRT-prot vector using the QuikChange protocol (Agilent Technologies, Santa Clara, CA, USA). Enzymes were expressed and purified as the wt-HIV-1 RT.
HIV RT-associated RNase H activity was measured as described ([Corona et al., 2016b]) in a 100-µl reaction volume containing 50 mM of Tris-HCl buffer, pH 7.8, 6 mM of MgCl2, 1 mM of dithiothreitol (DTT), 80 mM of KCl, 0.25 µM of hybrid RNA/DNA 5′-[…]-Fluorescin-3′ (high-performance liquid chromatography (HPLC), dry, QC: Mass Check) (available from Metabion) 5′-Dabcyl-[…]-3′ (HPLC, dry, QC: Mass Check), increasing concentrations of inhibitors, whose dilution were made in water, and different amounts of enzymes according to a linear range of the dose–response curve. The reaction mixture was incubated for 1 h at 37°C and stopped by the addition of EDTA, and products were measured with a multilabel counter plate reader Victor 3 equipped with filters for 490/528 nm.

[8] = Human immunodeficiency virus 1, MT4, viral replication in MT4 cells

Compound: O=C1Nc2ccc(Cl)cc2/C1=N/Nc1nc(-c2ccc(Cl)c(Cl)c2)cs1 [9b]
- EC50 (HIV-1 [1]; [8]): < 20 µM
- EC50 (HIV-1 [1]; viral replication in MT4 cells): 13.2 ± 3.7 µM
- CC50 [2]: > 100 µM
- toxicity against MT4 cells (MT4 cells): > 100 µM
- IC50 IN LEDGF-dependent integration [3]: not able to inhibit IN
- IC50 [3]: > 100 µM
- IC50 [4]: > 100 µM
- IC50 [5]: > 100 µM
- IC50 (HIV-1 IN-LEDGF binding): > 100 µM
- DNA 2LTRc levels (HIV-1 [6]): no increase
- total viral DNA (HIV-1 [6]): decrease in total viral DNA
- increase in IC50 values vs wt RT, RNase H function [7]: less than threefold

Compound: Cc1ccc(-c2csc(N/N=C3\C(=O)Nc4ccc([N+](=O)[O-])cc43)n2)cc1 [10a]
- EC50 (HIV-1 [1]; [8]): < 20 µM
- EC50 (HIV-1 [1]; viral replication in MT4 cells): 15.8 ± 1.8 µM
- CC50 [2]: > 100 µM
- toxicity against MT4 cells (MT4 cells): > 100 µM
- IC50 [3]: 32.3 ± 2.7 µM
- IC50 [4]: 35.5 ± 1.5 µM
- IC50 [5]: 11.5 ± 1.5 µM
- IC50 (HIV-1 IN-LEDGF binding): > 100 µM
- IC50 IN/LEDGF binding (HIV-1 IN-LEDGF binding): without interfering with the binding of LEDGF
- DNA 2LTRc levels (HIV-1 [6]): marked increase
- integrated viral DNA (HIV-1 [6]; 48 h): significantly more marked effect than 9b
- total viral DNA (HIV-1 [6]): decrease in total viral DNA
- increase in IC50 values vs wt RT, RNase H function [7]: less than threefold

Source: paper PMC10328743, “5-Nitro-3-(2-(4-phenylthiazol-2-yl)hydrazineylidene)indolin-2-one derivatives inhibit HIV-1 replication by a multitarget mechanism of action” (Frontiers in Cellular and Infection Microbiology, 2023)
